Data from ChEMBL document CHEMBL1201862, “PubChem BioAssay data set” (2004).
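48-hour exposure; five concentrations; linearly interpolated endpoints. GI50 is the concentration that inhibits growth by half.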 The source made the active and inactive calls. Cut-off read from the data, not from the text of the source: active = GI50 up to about 1.1 µM and inactive = higher.

Columns and labels:
Assay in all cases: NCI anticancer screen, dose series, 48 h
PC-3 = test system: PC-3
NCI-H460 = test system: NCI-H460
SK-OV-3 = test system: SK-OV-3
NCI-H23 = test system: NCI-H23
OVCAR-3 = test system: OVCAR-3
MDA-MB-231 = test system: MDA-MB-231
HL-60 = test system: HL-60
SF-295 = test system: SF-295
SF-268 = test system: SF-268
NCI-H522 = test system: NCI-H522
MDA-N = test system: MDA-N
KM12 = test system: KM12
Hs-578T = test system: Hs-578T
COLO 205 = test system: COLO 205
786-0 = test system: 786-0
A549 = test system: A549
UACC-62 = test system: UACC-62
OVCAR-4 = test system: OVCAR-4
SK-MEL-5 = test system: SK-MEL-5
SNB-19 = test system: SNB-19
MDA-MB-435 = test system: MDA-MB-435
ACHN = test system: ACHN
CCRF-CEM = test system: CCRF-CEM
SF-539 = test system: SF-539
UACC-257 = test system: UACC-257
MOLT-4 = test system: MOLT-4
OVCAR-5 = test system: OVCAR-5
HCT-15 = test system: HCT-15
MCF7 = test system: MCF7
UO-31 = test system: UO-31
EKVX = test system: EKVX
IGROV-1 = test system: IGROV-1
HOP-62 = test system: HOP-62
RXF 393 = test system: RXF 393
NCI-H226 = test system: NCI-H226
SK-MEL-2 = test system: SK-MEL-2
DU-145 = test system: DU-145
SNB-75 = test system: SNB-75
CAKI-1 = test system: CAKI-1
TK-10 = test system: TK-10
NCI/ADR-RES = test system: NCI/ADR-RES
OVCAR-8 = test system: OVCAR-8
U-251 = test system: U-251
SW-620 = test system: SW-620
BT-549 = test system: BT-549
HCC 2998 = test system: HCC 2998
HOP-92 = test system: HOP-92
SN12C = test system: SN12C
HCT-116 = test system: HCT-116
M14 = test system: M14
Malme-3M = test system: Malme-3M
LOX IMVI = test system: LOX IMVI
HT-29 = test system: HT-29
SK-MEL-28 = test system: SK-MEL-28
A498 = test system: A498
RPMI-8226 = test system: RPMI-8226
T47D = test system: T47D
K562 = test system: K562

CC1=CC(=O)/C(=C/NC(N)=S)C(=O)O1 was tested, and the GI50 (PC-3) was > 100 µM (inactive), the GI50 (NCI-H460) was > 100 µM (inactive) and the GI50 (SK-OV-3) was 43.2 µM (inactive). For the same compound, the GI50 (NCI-H23) was > 100 µM (inactive), the GI50 (OVCAR-3) was > 100 µM (inactive) and the GI50 (MDA-MB-231) was > 100 µM (inactive). The GI50 (HL-60) was 1.72 µM (inactive), the GI50 (SF-295) was > 100 µM (inactive) and the GI50 (SF-268) was > 100 µM (inactive). The GI50 (NCI-H522) was > 100 µM (inactive), the GI50 (MDA-N) was > 100 µM (inactive) and the GI50 (KM12) was > 100 µM (inactive). The GI50 (Hs-578T) was > 100 µM (inactive), the GI50 (COLO 205) was > 100 µM (inactive) and the GI50 (786-0) was > 100 µM (inactive). The GI50 (A549) was > 100 µM (inactive), the GI50 (UACC-62) was > 100 µM (inactive) and the GI50 (OVCAR-4) was > 100 µM (inactive). For the same compound, the GI50 (SK-MEL-5) was 92 µM (inactive), the GI50 (SNB-19) was 97.1 µM (inactive) and the GI50 (MDA-MB-435) was > 100 µM (inactive). For the same compound, the GI50 (ACHN) was > 100 µM (inactive), the GI50 (CCRF-CEM) was 28.2 µM (inactive) and the GI50 (SF-539) was > 100 µM (inactive). For the same compound, the GI50 (UACC-257) was > 100 µM (inactive), the GI50 (MOLT-4) was 53.7 µM (inactive) and the GI50 (OVCAR-5) was > 100 µM (inactive). The GI50 (HCT-15) was 98.4 µM, the GI50 (MCF7) was > 100 µM (inactive) and the GI50 (UO-31) was 38.5 µM (inactive). The GI50 (EKVX) was > 100 µM (inactive), the GI50 (IGROV-1) was > 100 µM (inactive) and the GI50 (HOP-62) was 97.5 µM (inactive). For the same compound, the GI50 (RXF 393) was 1.05 µM (active), the GI50 (NCI-H226) was > 100 µM (inactive) and the GI50 (SK-MEL-2) was 50.2 µM (inactive). The GI50 (DU-145) was > 100 µM (inactive), the GI50 (SNB-75) was 48.1 µM (inactive) and the GI50 (CAKI-1) was > 100 µM (inactive). For the same compound, the GI50 (TK-10) was 10.1 µM (inactive), the GI50 (NCI/ADR-RES) was > 100 µM (inactive) and the GI50 (OVCAR-8) was > 100 µM (inactive). For the same compound, the GI50 (U-251) was > 100 µM (inactive), the GI50 (SW-620) was > 100 µM (inactive) and the GI50 (BT-549) was > 100 µM (inactive). For the same compound, the GI50 (HCC 2998) was > 100 µM (inactive), the GI50 (HOP-92) was 15.3 µM (inactive) and the GI50 (SN12C) was > 100 µM (inactive). For the same compound, the GI50 (HCT-116) was > 100 µM (inactive) and the GI50 (M14) was > 100 µM (inactive).

With CCN(CC)/N=N/c1c(C(N)=O)n[nH]c1C the GI50 (PC-3) was > 100 µM (inactive), the GI50 (NCI-H460) was 31.2 µM (inactive) and the GI50 (SK-OV-3) was 22.1 µM (inactive). For the same compound, the GI50 (NCI-H23) was 36.9 µM (inactive), the GI50 (OVCAR-3) was > 100 µM (inactive) and the GI50 (MDA-MB-231) was > 100 µM (inactive). The GI50 (SF-295) was 38.1 µM (inactive), the GI50 (SF-268) was 39.3 µM (inactive) and the GI50 (NCI-H522) was 65.2 µM (inactive). For the same compound, the GI50 (KM12) was 50 µM (inactive), the GI50 (Hs-578T) was 45.9 µM (inactive) and the GI50 (Malme-3M) was 64.3 µM (inactive). The GI50 (COLO 205) was 52.5 µM (inactive), the GI50 (786-0) was 29.6 µM (inactive) and the GI50 (A549) was 69 µM (inactive). For the same compound, the GI50 (LOX IMVI) was 28.6 µM (inactive), the GI50 (HT-29) was > 100 µM (inactive) and the GI50 (UACC-62) was 35 µM (inactive). The GI50 (OVCAR-4) was > 100 µM (inactive), the GI50 (SK-MEL-5) was 33.7 µM (inactive) and the GI50 (SNB-19) was 77.1 µM (inactive). The GI50 (MDA-MB-435) was 77.4 µM (inactive), the GI50 (ACHN) was 32.8 µM (inactive) and the GI50 (SK-MEL-28) was > 100 µM (inactive). The GI50 (CCRF-CEM) was 18.3 µM (inactive), the GI50 (SF-539) was 29.5 µM (inactive) and the GI50 (A498) was > 100 µM (inactive). The GI50 (UACC-257) was > 100 µM (inactive), the GI50 (HCT-15) was 63.7 µM and the GI50 (MCF7) was 30.5 µM (inactive). The GI50 (UO-31) was 20.7 µM (inactive), the GI50 (EKVX) was 26.9 µM (inactive) and the GI50 (IGROV-1) was > 100 µM (inactive). The GI50 (RPMI-8226) was 44.2 µM (inactive), the GI50 (HOP-62) was 31.2 µM (inactive) and the GI50 (RXF 393) was > 100 µM (inactive). For the same compound, the GI50 (NCI-H226) was 48.9 µM (inactive), the GI50 (T47D) was 60.3 µM (inactive) and the GI50 (SK-MEL-2) was > 100 µM (inactive). For the same compound, the GI50 (DU-145) was 69.5 µM (inactive), the GI50 (SNB-75) was 23.2 µM (inactive) and the GI50 (CAKI-1) was 17.9 µM (inactive). For the same compound, the GI50 (TK-10) was > 100 µM (inactive), the GI50 (NCI/ADR-RES) was 48.5 µM (inactive) and the GI50 (OVCAR-8) was 49.4 µM (inactive). The GI50 (U-251) was 59 µM (inactive), the GI50 (SW-620) was 71.3 µM (inactive) and the GI50 (BT-549) was 11.1 µM (inactive). The GI50 (HCC 2998) was > 100 µM (inactive), the GI50 (HOP-92) was 11.3 µM (inactive) and the GI50 (SN12C) was 40.6 µM (inactive). For the same compound, the GI50 (HCT-116) was > 100 µM (inactive) and the GI50 (M14) was > 100 µM (inactive).

In the case of CCCOc1ccc2sc(NC(=O)c3cc([N+](=O)[O-])cc([N+](=O)[O-])c3)nc2c1, the GI50 (PC-3) is reported as 28.4 µM (inactive), the GI50 (NCI-H460) is reported as 50.4 µM (inactive) and the GI50 (SK-OV-3) is reported as 36.5 µM (inactive). For the same compound, the GI50 (NCI-H23) was 23 µM (inactive), the GI50 (K562) was 65.5 µM (inactive) and the GI50 (OVCAR-3) was 26.3 µM (inactive). For the same compound, the GI50 (MDA-MB-231) was 35 µM (inactive), the GI50 (HL-60) was 67.3 µM (inactive) and the GI50 (SF-295) was 35.6 µM (inactive). For the same compound, the GI50 (SF-268) was 43.8 µM (inactive), the GI50 (KM12) was 26.8 µM (inactive) and the GI50 (Hs-578T) was 13.7 µM (inactive). For the same compound, the GI50 (Malme-3M) was 25.4 µM (inactive), the GI50 (COLO 205) was 54.1 µM (inactive) and the GI50 (786-0) was 52.2 µM (inactive). For the same compound, the GI50 (A549) was 24.1 µM (inactive), the GI50 (LOX IMVI) was 20.8 µM (inactive) and the GI50 (HT-29) was 69.8 µM (inactive). The GI50 (UACC-62) was 25.5 µM (inactive), the GI50 (OVCAR-4) was 18.8 µM (inactive) and the GI50 (SK-MEL-5) was 17 µM (inactive). For the same compound, the GI50 (SNB-19) was 42.5 µM (inactive), the GI50 (MDA-MB-435) was 36.7 µM (inactive) and the GI50 (ACHN) was 48.4 µM (inactive). The GI50 (SK-MEL-28) was 50.5 µM (inactive), the GI50 (CCRF-CEM) was 30.3 µM (inactive) and the GI50 (SF-539) was 29.2 µM (inactive). The GI50 (A498) was 23.7 µM (inactive), the GI50 (MOLT-4) was 36.3 µM (inactive) and the GI50 (OVCAR-5) was > 100 µM (inactive). The GI50 (HCT-15) was 53.7 µM, the GI50 (MCF7) was 40.2 µM (inactive) and the GI50 (UO-31) was 18.5 µM (inactive). The GI50 (EKVX) was 19.4 µM (inactive), the GI50 (IGROV-1) was 10.6 µM (inactive) and the GI50 (RPMI-8226) was 31.8 µM (inactive). For the same compound, the GI50 (HOP-62) was 78.9 µM (inactive), the GI50 (RXF 393) was 48.4 µM (inactive) and the GI50 (NCI-H226) was 27.9 µM (inactive). For the same compound, the GI50 (T47D) was 53.2 µM (inactive), the GI50 (SK-MEL-2) was 50.2 µM (inactive) and the GI50 (DU-145) was 60.7 µM (inactive). For the same compound, the GI50 (SNB-75) was 30.5 µM (inactive), the GI50 (CAKI-1) was 28.6 µM (inactive) and the GI50 (TK-10) was 28.1 µM (inactive). For the same compound, the GI50 (NCI/ADR-RES) was 22.6 µM (inactive), the GI50 (OVCAR-8) was 31.3 µM (inactive) and the GI50 (U-251) was 32.4 µM (inactive). For the same compound, the GI50 (SW-620) was 31 µM (inactive), the GI50 (BT-549) was 47.8 µM (inactive) and the GI50 (HOP-92) was 16 µM (inactive). The GI50 (SN12C) was 42.1 µM (inactive), the GI50 (HCT-116) was 20.6 µM (inactive) and the GI50 (M14) was 50.4 µM (inactive).
